Columns and labels:
[1] = biological target: T1, islet amyloid polypeptide (IAPP) (Homo sapiens, UniProt P10997); test: Transmission electron microscopy (TEM) of IAPP fibers; details: 10 μM IAPP, equimolar ratio
T1 construct: IAPP is a 37 residue neuropancreatic hormone peptide; purchased Anaspec (Fremont, Calif.)
T1 sequence (P10997 34-70 limits assumed): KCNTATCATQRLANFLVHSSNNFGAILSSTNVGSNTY
Procedure: […] Aliquots of these samples were then applied to glow-discharged carbon-coated 300-mesh copper grids for 2 min and dried. Grids were negatively stained with uranyl acetate (2%, w/v) and dried. Micrographs of grids were examined on a Phillips CM12 Cryoelectron Microscope equipped with Gatan 4 k×2.7 k CCD camera at 120-kV accelerating voltage.

Aβ42 = biological target: T2, Aβ42 (Homo sapiens, UniProt P05067); test: ThT kinetic assay of Aβ42 fibrillation (specificity assay); format: biochemical
T2 construct: purchased
T2 sequence (P05067 672-713 limits assumed): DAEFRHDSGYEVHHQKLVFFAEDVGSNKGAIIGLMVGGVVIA
Procedure: Kinetic assays were conducted on a FlexStation 3 Multi-Mode Microplate reader from Molecular Devices (Sunnyvale, Calif.). Experiments were conducted in triplicate in a 96-well plate with a final volume of 200 μL per well. Every measurement was an average of 50 readings. The aggregation of IAPP was initiated by its addition from a stock solution (1 mM in DMSO) to phosphate buffer. The stoichiometry ratio for ThT to IAPP was 0.5:1. Peptide aggregation was monitored by ThT fluorescence (λex=445 nm and λem=485 nm). The blank sample contained all the components of the peptide samples except peptide. The sample data were processed by subtracting the blank and renormalizing the fluorescence intensity by setting the maximum value to 1.
Kinetic assays in the presence of the compounds of the invention were conducted under the same conditions. Small molecules were added from a stock solution (1 mM or 10 mM in DMSO) to keep the final concentration of DMSO less than 1.0% (v/v). Small molecules were added to the wells with ThT and buffer and mixed gently with a pipette before adding IAPP. To keep the conditions identical, an equal amount of DMSO was added to the wells with IAPP only reactions. For the aggregation kinetics of Aβ42, the peptide was dissolved in 1N NaOH (0.5-1 mM) and vortexed for 2 min. to ensure the complete solubility. The aggregation of 3 μM Aβ42 was initiated by addition of peptide from a stock solution (in 1 N NaOH, 0.5-1 mM) to phosphate buffer.
Kinetic profiles were processed using Origin (version 9.1). Kinetic curves were fit using the built-in sigmoidal fit. Each run was fit independently to extract the t50 (time required to reach 50% of the maximum fluorescence intensity). Error bars represent standard deviations from the mean of at least three independent experiments.
To test the specificity of ADH-101 towards IAPP, the binding interaction of ADH-101 with Aβ peptide was investigated. […]

[2] = Self-aggregation by UV, centrifugation and DLS; format: physicochemical
Description: ADH-101 contains hydrophobic and negatively charged groups and presents a possibility for self-aggregation. It has been shown that the small molecules with self-aggregation tendencies can inhibit amyloid formation in a non-specific manner. Therefore, UV, centrifugation, and DLS were used to explore the self-aggregation properties of ADH-101 (FIG. 12A).

## CCOC(=O)c1cc(NC(=O)c2cc(NC(=O)c3cc([N+](=O)[O-])cn3CC(C)C)cn2CC(C)C)cn1CCC(=O)O [ADH-101]
[1]; 12 hours
  fiber formation by TEM: no formation of fibers
[1]; 24 h
  fiber formation by TEM: formation of amorphous fibers
Aβ42
  effect on Aβ42 fibrillation (in words): weak agonist
Aβ42; 3 μM Aβ42, equimolar ratio
  relative t50 for Aβ42 amyloid fiber formation: 0.8 fold
Aβ42; 3 μM Aβ42, equimolar ratio, Aβ42 alone 4.22±0.51 h
  t50 for the amyloid kinetics of Aβ42 in the presence of compound: 3.41 ± 0.32 h
[2]; 50 μM, 150 mM KCl, 50 mM NaPi, pH 7.4
  diameter of species by DLS: less than 10 nm
[2]; phosphate buffer, UV and centrifugation
  concentration up to which the compound did not self-assemble: > 40 µM

— patent US11124479B2, “Oligopyrroles as antagonists of islet amyloid polypeptide oligomerization” (New York University, priority 2017, dated 2021)
